Activity calls are given as the source filed them. The calls are words filed in the database; no cut-off is given here.
Key:
[1] = biological target: 5-hydroxytryptamine receptor 2A (Homo sapiens, UniProt P28223); assay: Displacement of [3H]-ketanserin from human 5-HT2A receptor expressed in CHO-K1 cell membranes after 60 mins by microbeta scintillation counting analysis; format: cell-based
[2] = biological target: T1, 5-hydroxytryptamine receptor 1A (Homo sapiens, UniProt P08908); assay: Displacement of [3H]-8-OH-DPAT from human 5-HT1A receptor expressed in CHO-K1 cell membranes after 60 mins by microbeta scintillation counting analysis
T1 sequence (P08908 whole entry): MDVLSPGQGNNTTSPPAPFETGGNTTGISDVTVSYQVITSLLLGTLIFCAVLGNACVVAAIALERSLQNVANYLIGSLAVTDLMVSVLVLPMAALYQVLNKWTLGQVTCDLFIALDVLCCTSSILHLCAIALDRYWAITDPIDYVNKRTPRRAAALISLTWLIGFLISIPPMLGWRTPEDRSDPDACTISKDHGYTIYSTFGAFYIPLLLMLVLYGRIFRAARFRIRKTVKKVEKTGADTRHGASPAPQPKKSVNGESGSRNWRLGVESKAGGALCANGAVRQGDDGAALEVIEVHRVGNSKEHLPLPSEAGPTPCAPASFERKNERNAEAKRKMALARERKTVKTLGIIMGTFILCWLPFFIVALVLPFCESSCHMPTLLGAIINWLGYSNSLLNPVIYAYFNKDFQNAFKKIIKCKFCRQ

Mus musculus [3] = assay: Antidepressant activity in Balb/c mouse assessed as decrease in immobility time administered ip 30 mins prior to test measured for 6 mins by tail suspension test; format: functional, organism-based
Mus musculus [4] = assay: Toxicity in Balb/c mouse assessed as alterations in visible locomotor activity at 0.3 to 10 mg/kg, ip administered 30 mins prior to test; format: organism-based; conditions: in vivo, 0.5 h
[5] = biological target: T2, 5-hydroxytryptamine receptor 1A (Rattus norvegicus, UniProt P19327); assay: Agonist activity at 5-HT1A receptor in Sprague-Dawley rat hippocampal membranes after 90 mins by microbeta scintillation counting based [35S]GTPgammaS binding assay; format: functional
T2 sequence (P19327 whole entry): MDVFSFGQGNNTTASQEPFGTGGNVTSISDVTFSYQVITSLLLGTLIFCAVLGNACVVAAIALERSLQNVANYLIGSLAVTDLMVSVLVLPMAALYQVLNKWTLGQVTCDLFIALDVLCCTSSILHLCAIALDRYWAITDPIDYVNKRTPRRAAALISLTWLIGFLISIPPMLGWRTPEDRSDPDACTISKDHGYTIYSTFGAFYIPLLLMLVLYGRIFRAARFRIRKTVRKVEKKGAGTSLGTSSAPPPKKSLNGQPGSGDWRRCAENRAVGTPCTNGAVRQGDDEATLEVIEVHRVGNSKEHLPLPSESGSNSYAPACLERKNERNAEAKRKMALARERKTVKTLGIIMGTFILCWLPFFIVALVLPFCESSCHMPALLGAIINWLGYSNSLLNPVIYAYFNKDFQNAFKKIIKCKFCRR

Mus musculus [6] = assay: Toxicity in Balb/c mouse assessed as alterations in despair-related locomotor activity at 0.3 to 10 mg/kg, ip administered 30 mins prior to test; format: organism-based; conditions: in vivo, 0.5 h
[7] = biological target: T2, 5-hydroxytryptamine receptor 1A; assay: Antagonist activity at 5-HT1A receptor in Sprague-Dawley rat hippocampal membranes assessed as inhibition of 8-OH-DPAT-induced receptor activation after 90 mins by microbeta scintillation counting based [35S]GTPgammaS binding assay; format: functional
[8] = biological target: T3, 5-hydroxytryptamine receptor 1A (Rattus norvegicus) (UniProt P19327); assay: Agonist activity at 5-HT1A receptor in Sprague-Dawley rat hippocampal membranes at 10^-10 to 10^-5 M after 90 mins by microbeta scintillation counting based [35S]GTPgammaS binding assay relative to control; format: functional
T3 sequence (whole entry): T2 sequence (P19327 whole entry)

[9] = biological target: T3, 5-hydroxytryptamine receptor 1A (Rattus norvegicus); assay: Antagonist activity at 5-HT1A receptor in Sprague-Dawley rat hippocampal membranes assessed as inhibition of 8-OH-DPAT-induced receptor activation at 10^-10 to 10^-5 M after 90 mins by microbeta scintillation counting based [35S]GTPgammaS binding assay relative to control; format: functional
Mus musculus [10] = species: Mus musculus; assay: Pro-depressant activity in Balb/c mouse assessed as decrease in home cage activity; format: ADME, organism-based; conditions: in vivo
Mus musculus [11] = assay: Pro-depressant activity in Balb/c mouse assessed as decrease in immobility time at 3 to 10 mg/kg, ip administered 30 mins prior to test measured for 6 mins by tail suspension test; format: ADME, organism-based; conditions: in vivo, 0.1 h
Mus musculus [12] = assay: Antidepressant activity in Balb/c mouse assessed as decrease in immobility time at 0.3 to 1 mg/kg, ip administered 30 mins prior to test measured for 6 mins by tail suspension test; format: functional, organism-based
Mus musculus [13] = assay: Pro-depressant activity in Balb/c mouse assessed as decrease in immobility time administered ip 30 mins prior to test measured for 6 mins by tail suspension test; format: ADME, organism-based; conditions: in vivo, 0.1 h

Sequence of 5-hydroxytryptamine receptor 2A (P28223 whole entry): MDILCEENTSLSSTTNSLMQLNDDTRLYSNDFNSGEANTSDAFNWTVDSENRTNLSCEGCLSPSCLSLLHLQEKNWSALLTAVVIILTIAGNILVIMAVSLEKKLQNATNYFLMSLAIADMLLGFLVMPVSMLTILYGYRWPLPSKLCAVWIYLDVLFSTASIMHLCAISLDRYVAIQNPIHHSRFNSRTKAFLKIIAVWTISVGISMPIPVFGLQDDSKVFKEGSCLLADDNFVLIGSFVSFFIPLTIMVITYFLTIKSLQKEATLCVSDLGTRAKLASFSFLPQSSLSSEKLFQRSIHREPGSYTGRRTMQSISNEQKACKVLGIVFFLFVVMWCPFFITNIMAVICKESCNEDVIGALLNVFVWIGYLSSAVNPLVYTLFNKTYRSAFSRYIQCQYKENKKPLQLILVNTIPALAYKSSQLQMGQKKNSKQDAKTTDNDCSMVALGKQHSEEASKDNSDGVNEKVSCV

Row | Compound | Ki [1] [nM] | Ki [2] [nM] | other results
1 | CC(=O)c1c(OCCCCN2CCN(c3ccccc3C(F)(F)F)CC2)ccc2c(C)cc(=O)oc12 | 48.7 | 11 | –
2 | CNCCC(Oc1ccc(C(F)(F)F)cc1)c1ccccc1 (configuration not stated) | – | – | Activity (Mus musculus [3]): Dose-dependent effect
3 | CC(=O)c1c(OCCCCN2CCN(c3cccc(Br)c3)CC2)ccc2c(C)cc(=O)oc12 | 6.5 | 2.5 | –
4 | CC(=O)c1c(OCCCCN2CCN(c3cc(C)cc(C)c3)CC2)ccc2c(C)cc(=O)oc12 | 58 | 3.7 | –
5 | CC(=O)c1c(OCCCN2CCN(c3ccccc3C(F)(F)F)CC2)ccc2c(C)cc(=O)oc12 | 20 | 8.8 | –
6 | CC(=O)c1c(OCCCCN2CCN(c3cccc(F)c3)CC2)ccc2c(C)cc(=O)oc12 | 400 | 50 | –
7 | CC(=O)c1c(OCCCCN2CCN(c3ccccc3Cl)CC2)ccc2c(C)cc(=O)oc12 | 20 | 0.9 | –
8 | CC(=O)c1c(OCCCN2CCN(c3cc(C)ccc3C)CC2)ccc2c(C)cc(=O)oc12 | 102 | 14 | –
9 | CC(=O)c1c(OCCCCN2CCN(c3ccccc3Br)CC2)ccc2c(C)cc(=O)oc12 | 10 | 1.5 | –
10 | COc1ccccc1N1CCN(CCCCOc2ccc3c(C)cc(=O)oc3c2C(C)=O)CC1 | 56 | 1 | –
11 | COc1ccccc1N1CCN(CCCOc2ccc3c(C)cc(=O)oc3c2C(C)=O)CC1 | 8 | 0.6 | Activity (Mus musculus [4]): Non-Toxic; EC50 [5]: 2 nM; Activity (Mus musculus [6]): Non-Toxic; EC50 [7]: 631 nM; Emax [8]: 108%; inhibition [9]: 70%
12 | CC(=O)c1c(OCCCCN2CCN(c3cc(C)ccc3C)CC2)ccc2c(C)cc(=O)oc12 | 46.8 | 5.4 | –
13 | CC(=O)c1c(OCCCN2CCN(c3cc(C)cc(C)c3)CC2)ccc2c(C)cc(=O)oc12 | 12.5 | 0.9 | –
14 | CC(=O)c1c(OCCCN2CCN(c3cccc(F)c3)CC2)ccc2c(C)cc(=O)oc12 | 408 | 1350 | –
15 | CC(=O)c1c(OCCCN2CCN(c3ccccc3Cl)CC2)ccc2c(C)cc(=O)oc12 | 22 | 2 | –
16 | CC(=O)c1c(OCCCN2CCN(c3ccccc3Br)CC2)ccc2c(C)cc(=O)oc12 | 7 | 0.5 | EC50 [5]: 39.8 nM; Activity (Mus musculus [10]): Toxic; Activity (Mus musculus [11]): Toxic; EC50 [7]: 126 nM; Activity (Mus musculus [12]): inactive; Emax [8]: 112%; inhibition [9]: 82%; Activity (Mus musculus [13]): Dose-dependent effect
17 | CC(=O)c1c(OCCCN2CCN(c3cccc(Br)c3)CC2)ccc2c(C)cc(=O)oc12 | 6 | 3.5 | –

Reference: ChEMBL document CHEMBL4184192, “5-HT1A and 5-HT2A receptors affinity, docking studies and pharmacological evaluation of a series of 8-acetyl-7-hydroxy-4-methylcoumarin derivatives” (Bioorg Med Chem, 2018)
